Test results reported in PubChem BioAssay AID1996.
In brackets after ≈: the same amount, converted by molar mass. Non-standard residues stand in square brackets, D forms with d. Residues, ends and D or L forms follow the SMILES beside them. ξ: configuration not given here. *: point of attachment. ξN = NC(=O)CC(N)C(=O)O; Boc = CC(C)(C)OC(=O)*

Conditions: buffer; pH 7.4; 200.0 µM
For `CCOc1ccc(C(=O)OC(C)CN2CCCCC2)cc1.Cl` (stereo unspecified), the solubility kinetic was > 49.2 µg/mL.
For `CCc1c(SCCC(=O)O)nc2ccccc2c1C`, the solubility kinetic was > 41.3 µg/mL.
With `N#C/C(=C\c1ccc[nH]1)C(=O)NCC1CCCO1` (stereo unspecified) the solubility kinetic was > 36.8 µg/mL.
In the case of `O=C(N[C@@H](Cc1ccccc1)C(=O)O)c1cccs1`, the solubility kinetic is reported as > 41.3 µg/mL.
With `O=C(O)c1cccc(CN2C(=O)c3ccccc3C2=O)c1` the solubility kinetic was > 42.2 µg/mL.
`COc1ccc(C(=O)NC(=S)Nc2cccnc2)cc1Cl` gave a solubility kinetic of 1.5 µg/mL (≈ 4.66 µM).
In the case of `N#Cc1c(F)cccc1NCc1cccnc1`, the solubility kinetic is reported as 33.2 µg/mL (≈ 146 µM).
`CC(=O)c1c(C)[nH]c(C(=O)COC(=O)c2nccnc2N)c1C` gave a solubility kinetic of 11.9 µg/mL (≈ 37.6 µM).
`O=C(Nc1cccc(Cl)c1)c1ccc2c(c1)OCCO2` gave a solubility kinetic of 6.3 µg/mL (≈ 21.7 µM).
For `CN(CC(=O)O)S(=O)(=O)c1ccc2oc3ccccc3c2c1`, the solubility kinetic was 40.1 µg/mL (≈ 126 µM).
For `Cc1cc(Br)ccc1OCCN1CCCC1.O=C(O)C(=O)O`, the solubility kinetic was > 56.1 µg/mL.
`CCCCN(C(=O)c1cnccn1)c1c(N)n(CCC)c(=O)[nH]c1=O` gave a solubility kinetic of 46.9 µg/mL (≈ 135 µM).
For `Cc1ccc(NC(=O)CCNC(=O)c2ccc(Cl)cc2)cc1C`, the solubility kinetic was 1.7 µg/mL (≈ 5.14 µM).
For `Cc1cccc(-c2nc(N)nc(N)n2)c1`, the solubility kinetic was 28 µg/mL (≈ 139 µM).
With `CC(C)Cn1c(=S)[nH]c2ccccc2c1=O` the solubility kinetic was 1.6 µg/mL (≈ 6.83 µM).
For `Cc1cc(C(=O)NCC2CCCO2)sc1C` (stereo unspecified), the solubility kinetic was > 35.9 µg/mL.
With `Cc1ccc(C)c(NC(=O)N2CCCCCC2)c1` the solubility kinetic was > 37 µg/mL.
`CCCNC(=S)N1CCC(NC(=O)c2ccc(C)cc2)CC1` showed a solubility kinetic of 7.5 µg/mL (≈ 23.5 µM).
`CC1=N/C(=C/c2cc(Br)cc(Br)c2O)C(=O)O1` showed a solubility kinetic of 2.8 µg/mL (≈ 7.76 µM).
`NS(=O)(=O)c1ccc(CCNC(=S)NC(=O)c2ccccc2Br)cc1` gave a solubility kinetic of 3.3 µg/mL (≈ 7.46 µM).
`O=C(CSc1ncccn1)Nc1cc(Cl)ccc1[N+](=O)[O-]` gave a solubility kinetic of 4.7 µg/mL (≈ 14.5 µM).
For `C=CCc1ccccc1OCC(O)CN1CCOCC1` (stereo unspecified), the solubility kinetic was > 41.6 µg/mL.
`Cc1ccc(C)c(OCC(=O)Nc2ccccc2N2CCCC2)c1` gave a solubility kinetic of 1.3 µg/mL (≈ 4.01 µM).
In the case of `COc1cc2c(cc1OC)CN(C(=O)c1ccc(Br)o1)CC2`, the solubility kinetic is reported as > 54.9 µg/mL.
Work on `CC1(CCc2ccccc2)NC(=O)N(CC(=O)O)C1=O` (stereo unspecified) yielded a solubility kinetic of 16.6 µg/mL (≈ 60.1 µM).
In the case of `Cl.O=C(COc1ccc(F)cc1)NCCN1CCCC1`, the solubility kinetic is reported as > 45.4 µg/mL.
Compound `Oc1ccc(-c2cnc(-c3ccc(O)cc3)nc2)cc1` has a solubility kinetic of 1.7 µg/mL (≈ 6.43 µM).
Compound `COC(=O)CN(C#N)c1nc(N(C)C)nc(N(C)C)n1` has a solubility kinetic of 31.2 µg/mL (≈ 112 µM).
With `COc1ccc(-c2csc3nc(-c4ccccc4F)oc(=O)c23)cc1` the solubility kinetic was < 0.8 µg/mL.
For `Cc1cc(C)c(S(=O)(=O)c2ccccc2Cl)c(=O)[nH]1`, the solubility kinetic was 42.2 µg/mL (≈ 142 µM).
In the case of `O=C(C(=O)N1CCCCC1)c1c(-c2ccccc2)[nH]c2ccccc12`, the solubility kinetic is reported as > 49.9 µg/mL.
Work on `COc1ccc(CNC(=O)Nc2cc(C)cc(C)c2)cc1` yielded a solubility kinetic of 0.8 µg/mL (≈ 2.81 µM).
For `O=C(Nc1cccc(F)c1)Nc1ccc2c(c1)C(=O)OC2`, the solubility kinetic was < 0.3 µg/mL.
For `O=C(c1cccc([N+](=O)[O-])c1)c1ccc2c(c1)C(=O)NC2=O`, the solubility kinetic was 6.3 µg/mL (≈ 21.3 µM).
For `CN(C(=O)c1ccc(N2CCOCC2)c([N+](=O)[O-])c1)C1CCCCC1`, the solubility kinetic was > 52.1 µg/mL.
For `Cc1ccc(C(=O)N2CCN(c3ncccn3)CC2)c(C)c1`, the solubility kinetic was 27.5 µg/mL (≈ 92.8 µM).
Compound `S=C(NC1CCCCC1)N1CCOCC1` has a solubility kinetic of 33.8 µg/mL (≈ 148 µM).
With `O=[N+]([O-])c1ccc(OCc2cnc(Cl)s2)c([N+](=O)[O-])c1` the solubility kinetic was 4.7 µg/mL (≈ 14.9 µM).
With `Cc1cc(C)c2c(N)c(C(=O)c3ccccc3Cl)sc2n1` the solubility kinetic was 0.4 µg/mL (≈ 1.26 µM).
In the case of `O=C(C1CCC1)N1CCN(S(=O)(=O)c2ccccc2)CC1`, the solubility kinetic is reported as > 46.3 µg/mL.
For `CNC(=O)c1oc(-c2ccc(Cl)cc2)nc1C`, the solubility kinetic was > 37.6 µg/mL.
Compound `COCCNC(=O)c1cc2c(s1)-c1ccc(Cl)cc1SC2` has a solubility kinetic of 4.5 µg/mL (≈ 13.2 µM).
In the case of `NC(=O)c1cc(S(=O)(=O)NCCCc2ccco2)cs1`, the solubility kinetic is reported as > 47.2 µg/mL.
`COc1cc(OC)c(C(=O)OCC(=O)Nc2ccc(N3CCOCC3)cc2)cc1OC` showed a solubility kinetic of 6.5 µg/mL (≈ 15.1 µM).
In the case of `COc1ccc(NC(=O)NCc2ccccc2F)cc1OC`, the solubility kinetic is reported as 10.9 µg/mL (≈ 35.8 µM).
In the case of `CC(C)CCNC(=O)C1CCC(=O)N1CCc1ccccc1` (stereo unspecified), the solubility kinetic is reported as 42.8 µg/mL (≈ 142 µM).
Work on `CC1CCN(C(=O)c2ccc(CNS(=O)(=O)c3ccc(C(C)(C)C)cc3)cc2)CC1` yielded a solubility kinetic of 8.3 µg/mL (≈ 19.4 µM).
`Cc1cc(C(=O)Nc2ccc3ccccc3c2)c(C)o1` showed a solubility kinetic of 1.8 µg/mL (≈ 6.78 µM).
With `Cc1cc(C)c(S(=O)(=O)NCc2ccccn2)cc1C` the solubility kinetic was > 43.6 µg/mL.
Work on `O=C(/C=C/c1ccccc1Cl)Nc1ccccc1` yielded a solubility kinetic of 0.6 µg/mL (≈ 2.33 µM).
For `O=C(NC1CC1)c1ccc(NS(=O)(=O)c2ccccc2)cc1`, the solubility kinetic was > 47.5 µg/mL.
For `COc1cccc(N2CCN(C(=O)c3ccc4nc[nH]c4c3)CC2)c1`, the solubility kinetic was 48.6 µg/mL (≈ 144 µM).
`COc1ccccc1C1CCN(C(=O)c2ccco2)CC1` gave a solubility kinetic of 34 µg/mL (≈ 119 µM).
In the case of `O=[N+]([O-])c1ccc(S(=O)(=O)NCCc2ccncc2)cc1`, the solubility kinetic is reported as 12.8 µg/mL (≈ 41.6 µM).
In the case of `O=C(NCc1ccc(Cl)cc1)N1CCN(Cc2ccccc2)CC1`, the solubility kinetic is reported as > 51.6 µg/mL.
For `Cc1c(O)ccc(C(=O)CN2CC(C)OC(C)C2)c1O` (stereo unspecified), the solubility kinetic was > 41.9 µg/mL.
Compound `Cc1noc(/C=C/c2ccccn2)c1[N+](=O)[O-]` has a solubility kinetic of 19.3 µg/mL (≈ 83.5 µM).
With `Cn1ccnc1SCC(=O)c1cccc(C(F)(F)F)c1` the solubility kinetic was > 45 µg/mL.
With `Oc1ccc(CNc2ccccc2)c2cccnc12` the solubility kinetic was 3.5 µg/mL (≈ 14 µM).
In the case of `N#Cc1ccccc1NC(=O)COC(=O)CN1C(=O)C2CCCCC2C1=O` (stereo unspecified), the solubility kinetic is reported as > 55.4 µg/mL.
With `O=C(CSc1cccs1)Nc1ccc(Cl)cc1` the solubility kinetic was 36.5 µg/mL (≈ 129 µM).
For `CC(=O)Nc1ccc(NS(=O)(=O)c2cccc3nonc23)cc1`, the solubility kinetic was > 49.8 µg/mL.
With `CSc1ncccc1C(=O)Nc1cccc(S(=O)(=O)N2CCCC2)c1` the solubility kinetic was > 56.6 µg/mL.
For `N#CCc1ccc(Oc2ncccn2)cc1`, the solubility kinetic was > 31.7 µg/mL.
In the case of `CN(C)c1ccc(/C=N/NC(=O)CNC(=O)c2ccncc2)cc1`, the solubility kinetic is reported as > 48.8 µg/mL.
For `C=CCOc1nc2sc(C)c(C)c2c(=O)n1-c1ccccc1`, the solubility kinetic was 46.1 µg/mL (≈ 148 µM).
With `NC(=O)c1ccc2nc(-c3ccccc3)c(-c3ccccc3)nc2c1` the solubility kinetic was 0.6 µg/mL (≈ 1.84 µM).
With `O=C(Cn1c(CO)nc2ccccc21)NC1CCCCCC1` the solubility kinetic was > 45.2 µg/mL.
For `Cc1ccc2nc(/C(C#N)=C/c3ccccc3C(=O)O)[nH]c2c1`, the solubility kinetic was > 45.5 µg/mL.
With `CCOC(=O)CNC(=O)C(CC(N)=O)NC(=O)OC(C)(C)C` (stereo unspecified) (Boc-[ξN]-Gly-OEt) the solubility kinetic was > 47.6 µg/mL.
For `Cc1ccc(CN2CC(C(=O)Nc3cccc(C)n3)CC2=O)cc1` (stereo unspecified), the solubility kinetic was > 48.5 µg/mL.
For `CC(C)OCCCNC(=O)Cc1ccc(F)cc1`, the solubility kinetic was > 38 µg/mL.
With `O=C(CNC(=O)c1ccccc1F)N/N=C/c1cccnc1` the solubility kinetic was > 45 µg/mL.
With `COC(=O)c1cc(CNC(=O)CC(C)c2ccccc2)ccc1OC` (stereo unspecified) the solubility kinetic was > 51.2 µg/mL.
Compound `O=C(CSc1ccccc1F)NC(=O)c1ccc(Cl)cc1` has a solubility kinetic of 8.5 µg/mL (≈ 26.3 µM).
With `COc1cc(/C=N/Nc2ccccn2)cc(OC)c1O` the solubility kinetic was > 41 µg/mL.
In the case of `COc1ccc(C(=O)NCc2c(C)oc(C)c2C(=O)O)cc1`, the solubility kinetic is reported as > 45.5 µg/mL.
`CCCCCNS(=O)(=O)c1cc2c3c(c1)CCC(=O)N3CCC2` gave a solubility kinetic of 45.5 µg/mL (≈ 135 µM).
`O=C(O)c1ccccc1Nc1ccc([N+](=O)[O-])c2nonc12` gave a solubility kinetic of 29.5 µg/mL (≈ 98.3 µM).
In the case of `COC(=O)C1CN(C(=O)COc2cc(C)cc(C)c2)c2ccccc2O1` (stereo unspecified), the solubility kinetic is reported as 3.7 µg/mL (≈ 10.4 µM).
For `Cc1ccc(CN2C(=O)CSC2c2cccnc2)cc1` (stereo unspecified), the solubility kinetic was > 42.7 µg/mL.
For `O=C(/C=C/c1ccccc1)NCCCNC(=O)/C=C/c1ccccc1`, the solubility kinetic was 5 µg/mL (≈ 15 µM).
`O=C(Cc1ccc(F)cc1)N1CCN(c2ccc([N+](=O)[O-])cc2)CC1` showed a solubility kinetic of 3.5 µg/mL (≈ 10.2 µM).
Work on `O=C(c1cccc(S(=O)(=O)Nc2ccc(Br)cc2)c1)N1CCC1` yielded a solubility kinetic of 58.9 µg/mL (≈ 149 µM).
With `Cc1cc(/C=C\c2ccccc2)nc2ccccc12` the solubility kinetic was < 0.5 µg/mL.
Work on `Cc1ccc(NC(=S)NCc2ccccc2)c(C)c1` yielded a solubility kinetic of 39.2 µg/mL (≈ 145 µM).
